According to US20170196842A1, “METHODS OF TREATMENT USING A 1,2,4-OXADIAZOLE BENZOIC ACID” (PTC Therapeutics, Inc., priority 2014, published 2017):
“Also recorded” adds a separate entry of the source.

What was measured:
Idua-W402X mice = experiment: Tissue GAG levels in the nonsense-mutation Hurler mouse model, Compound 1 given in chow; assay type: in vivo
Description: Compound 1 was administered to Idua-W402X mice by mixing Compound 1 into solid mouse chow at concentrations of 0.1%. 0.3% or 1.0% (w/w) for 2 weeks, after which time GAG levels in the brain, spleen, heart, liver, lung, and kidney tissues were quantified.
The effect of Compound 1 on iduronidase activity as a result of readthrough of the premature stop codon present in the Idua gene (Idua-W392X) was determined in a nonsense-mutation containing mouse model of Hurler syndrome, referred to as the Idua-W392X Hurler mouse. The study initiated when mice were 3-4 weeks old.
Homozygous Idua-W392X mice were offered food prepared with or without Compound 1 for 14 days. Wild type animals received chow without Compound 1 for 14 days. Assay results were obtained from tissues isolated from wild type (+/+) and homozygous Idua-W392X (−/−) mice after 14 days of treatment. Briefly, Compound 1 was dissolved in water, mixed into pulverized chow, shaped into pellets and dried.
Following the 14-day treatment period, mice were anesthetized using isoflurane and transcardially perfused with 20 mL saline prior to tissue collection. At the time of sacrifice, brain, liver, heart, lung, spleen and kidney were collected and frozen at −80° C. until used for determination of GAG levels.
(§1) GAG levels were determined using the Blyscan Sulfated GAG Assay (Biocolor Ltd, UK). Briefly, 50 μL of each lysate was added to 500 μL of the Blyscan Dye Reagent and mixed by vortexing. The mixture was incubated at room temperature for 30 minutes, vortexing every 5 minutes. The dye-bound GAGs were isolated from the solution by centrifuging for 10 minutes at 10,000 g at room temperature. A total of 500 μL of the Blyscan Dye Dissociation Reagent was added to the […] from each sample. The samples were vortexed and incubated for 10 minute at room temperature. The entire volume of each sample was then placed into a cuvette and the absorbance was measured at a wavelength of 656 nm. The total amount of sulfated GAGs precipitated from each sample was determined from a standard curve using chondroitin 4-sulfate. The total protein concentration in each lysate was determined using the Bio-Rad protein assay with a standard curve generated using bovine serum albumin.

[1] = test system: Mouse embryonic fibroblasts (MEFs); experiment: Cell toxicity/stress (visual inspection) and total protein concentration in MEFs; assay type: cell-based; settings: 24 hours
Description: The greatest reduction of GAG levels occurred at 10 μg/mL with decreased reduction of GAG levels at concentrations above 20 μg/mL. […] Cell viability was determined by quantifying the total protein concentration in each lysate.
The effect of Compound 1 on iduronidase activity as a result of readthrough of the premature stop codon present in the Idua gene was determined in an in vitro GAG accumulation assay. This assay utilized primary fibroblasts isolated from 13 day-old +/+ and −/− Idua-W392X mouse embryos. Mouse embryonic fibroblasts (MEFs) were isolated from 13 day-old wild type and homozygous Idua-W392X mouse embryo littermates. The cells were grown in Dulbecco's Modified Eagle Media (DMEM) containing 10% bovine calf serum (BCS)+1% non-essential amino acids+1% penicillin/streptomycin at 37° C. and 5% CO2. The MEFs were isolated and grown on collagen-coated plates until ˜50% confluent. MEFs from Idua-W392X mice were treated with increasing concentrations of Compound 1 dissolved in DMSO to a final concentration of 0.2%. Cells were incubated with Compound 1 for 24 hours. Controls included untreated wild type and untreated Idua-W392X MEFs. […]
The total protein concentration in each lysate was determined using the Bio-Rad protein assay with a standard curve generated using bovine serum albumin.

[2] = test system: Mouse embryonic fibroblasts (MEFs) isolated from the Idua-W402X mice; experiment: GAG levels in cultured mouse embryonic fibroblasts from the nmHurler mouse model (Blyscan Sulfated GAG Assay); assay type: cell-based; settings: 24 hours
Description: nmMPS I is caused by the lack of the lysosomal enzyme IDUA and results in the accumulation of GAGs in tissues. Therefore, GAG levels can be monitored to assess the efficacy of treatment for this disease. In the nmHurler mouse model of nmMPS I, the Idua-W402X Hurler mouse IDUA gene (TGG→TAG) harbors a W392X mutation in exon 9, corresponding to the W402X mutation found in approximately 30 to 50% of nmMPS I patients. Mouse embryonic fibroblasts (MEFs) isolated from the Idua-W402X mice were treated with Compound 1 at concentrations of 0, 1, 2.5, 5, 10, 20, and 40 μg/mL for 24 hours in 0.2% DMSO. After 24 hours, cells were lysed and the levels of GAGs were quantified.
The effect of Compound 1 on iduronidase activity as a result of readthrough of the premature stop codon present in the Idua gene was determined in an in vitro GAG accumulation assay. This assay utilized primary fibroblasts isolated from 13 day-old +/+ and −/− Idua-W392X mouse embryos. Mouse embryonic fibroblasts (MEFs) were isolated from 13 day-old wild type and homozygous Idua-W392X mouse embryo littermates. The cells were grown in Dulbecco's Modified Eagle Media (DMEM) containing 10% bovine calf serum (BCS)+1% non-essential amino acids+1% penicillin/streptomycin at 37° C. and 5% CO2. The MEFs were isolated and grown on collagen-coated plates until ˜50% confluent. MEFs from Idua-W392X mice were treated with increasing concentrations of Compound 1 dissolved in DMSO to a final concentration of 0.2%. Cells were incubated with Compound 1 for 24 hours. Controls included untreated wild type and untreated Idua-W392X MEFs. After 24 hours, cells were visually inspected for signs of cytotoxicity and cell stress and then lysed using M-Per Protein Reagent (Pierce) containing protease inhibitors (Complete-mini; Roche) per the manufacturer's instructions. The supernatant was used to determine glycosaminoglycan (GAG) levels, as described below.
as §1, with “μl” for “μL”, “temperature.” for “temperature. A total of”, “The samples were vortexed and incubated for 10 minute at room temperature.” left out

[3] = Idua-W402X (W392X) mice, 0.1%, 0.3%, 1.0% (w/w) chow, 14 days
[4] = Idua-W402X mice, 0.1% (w/w) in chow, 2 weeks
[5] = Idua-W402X mice, 0.3% (w/w) in chow, 2 weeks
[6] = Idua-W402X mice, 1.0% (w/w) in chow, 2 weeks

## O=C(O)c1cccc(-c2noc(-c3ccccc3F)n2)c1 [Compound 1, 3-[5-(2-fluoro-phenyl)-[1,2,4]oxadiazol-3-yl]-benzoic acid]
Idua-W402X mice; Idua-W392X mice, chow, 14 days
  Nonsense suppression activity as determined by decreased GAG levels in multiple tissues: concentration-dependent nonsense suppression activity
Idua-W402X mice; [3]
  Compound 1 concentration in chow giving maximal reduction of GAG levels in brain, spleen, heart and lung: 0.1%
  Compound 1 concentration in chow giving maximal reduction of liver GAG levels: 0.3%
Idua-W402X mice; Idua-W402X (W392X) mice, any dose (0.1-1.0% chow)
  Effect on GAG levels in the kidney: No statistically significant effect
Idua-W402X mice; [4]
  Reduction in Excess GAG Levels, Brain: 70%
  Reduction in Excess GAG Levels, Heart: 36%
  Reduction in Excess GAG Levels, Kidney: 0%
  Reduction in Excess GAG Levels, Liver: 0%
  Reduction in Excess GAG Levels, Lung: 19%
  Reduction in Excess GAG Levels, Spleen: 78%
Idua-W402X mice; Idua-W402X mice, 0.1% in chow, 2 weeks
  GAG levels achieved in the brain and spleen: near normal GAG levels
Idua-W402X mice; [5]
  Reduction in Excess GAG Levels, Brain: 37%
  Reduction in Excess GAG Levels, Heart: 0%
  Reduction in Excess GAG Levels, Kidney: 0%
  Reduction in Excess GAG Levels, Liver: 53%
  Reduction in Excess GAG Levels, Lung: 11%
  Reduction in Excess GAG Levels, Spleen: 57%
Idua-W402X mice; [6]
  Reduction in Excess GAG Levels, Brain: 28%
  Reduction in Excess GAG Levels, Heart: 0%
  Reduction in Excess GAG Levels, Kidney: 0%
  Reduction in Excess GAG Levels, Liver: 17%
  Reduction in Excess GAG Levels, Lung: 14%
  Reduction in Excess GAG Levels, Spleen: 11%
[1]; 0 to 40 μg/mL
  Changes in total protein concentration (cell viability): No notable changes
[1]; up to the highest concentration tested (40 μg/mL)
  Signs of cellular toxicity or stress (cells rounding up or floating, changes in cell density): No signs of cellular toxicity or stress; also recorded: No signs of cell toxicity or stress
[2]; Idua-W392X MEFs
  Dose-response relationship for GAG reduction: U shaped dose-response relationship
  Nonsense suppression activity as determined by GAG levels: concentration dependent nonsense suppression activity
[2]; Idua-W402X (W392X) MEFs, 1-40 μg/mL tested
  Concentration giving the greatest reduction of GAG levels: 10 µg/mL
[2]; Idua-W402X MEFs
  Concentrations with decreased reduction of GAG levels: above 20 μg/mL
